Assay results published in the supplement of paper PMC10307832.

Key:
Assay in all cases: relative viability (nuclei count vs DMSO), 5 days (fraction); higher = more cells survive
[1] = compound: CC(C)(C)c1cc(NC(=O)Nc2ccc(-c3cn4c(n3)sc3cc(OCCN5CCOCC5)ccc34)cc2)no1 [Quizartinib] + CC(=O)c1c(C)c2cnc(Nc3ccc(N4CCNCC4)cn3)nc2n(C2CCCC2)c1=O [Palbociclib] (partner 0.5 µM)
Method in brief: (§1)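 Relative viability is defined as nuclei in treated wells over nuclei in vehicle wells. Duplicate plates were run and medians reported. Lung cancer cell lines in 1536-well plates were dosed by pin tool one day after seeding, with one drug or with a fixed anchor-drug dose plus five library-drug doses (not always all listed) in √10 steps, and nuclei were counted after 5 days.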

YM155 + Palbociclib = compound: COCC[n+]1c2c(n(Cc3cnccn3)c1C)C(=O)c1ccccc1C2=O [YM155] + CC(=O)c1c(C)c2cnc(Nc3ccc(N4CCNCC4)cn3)nc2n(C2CCCC2)c1=O [Palbociclib] (partner 0.5 µM)
Method in brief: as §1

Quizartinib + Luminespib = compound: CC(C)(C)c1cc(NC(=O)Nc2ccc(-c3cn4c(n3)sc3cc(OCCN5CCOCC5)ccc34)cc2)no1 [Quizartinib] + CCNC(=O)c1noc(-c2cc(C(C)C)c(O)cc2O)c1-c1ccc(CN2CCOCC2)cc1 [Luminespib] (partner 0.01 µM)
Method in brief: as §1

Quizartinib + AZD7762 = compound: CC(C)(C)c1cc(NC(=O)Nc2ccc(-c3cn4c(n3)sc3cc(OCCN5CCOCC5)ccc34)cc2)no1 [Quizartinib] + NC(=O)Nc1cc(-c2cccc(F)c2)sc1C(=O)N[C@H]1CCCNC1 [AZD7762] (partner 0.2 µM)
Method in brief: as §1

| Cell Line | relative viability ([1]; first compound 0.001 µM) | relative viability ([1]; first compound 0.003162 µM) | relative viability ([1]; first compound 0.01 µM) | relative viability ([1]; first compound 0.03162 µM) | relative viability ([1]; first compound 0.1 µM) | relative viability (YM155 + Palbociclib; first compound 0.002 µM) | relative viability (YM155 + Palbociclib; first compound 0.006325 µM) | relative viability (YM155 + Palbociclib; first compound 0.02 µM) | relative viability (YM155 + Palbociclib; first compound 0.06325 µM) | relative viability (Quizartinib + Luminespib; first compound 0.001 µM) | relative viability (Quizartinib + Luminespib; first compound 0.003162 µM) | relative viability (Quizartinib + Luminespib; first compound 0.01 µM) | relative viability (Quizartinib + Luminespib; first compound 0.03162 µM) | relative viability (Quizartinib + Luminespib; first compound 0.1 µM) | relative viability (Quizartinib + AZD7762; first compound 0.001 µM) | relative viability (Quizartinib + AZD7762; first compound 0.003162 µM) | relative viability (Quizartinib + AZD7762; first compound 0.01 µM) | relative viability (Quizartinib + AZD7762; first compound 0.03162 µM) | relative viability (Quizartinib + AZD7762; first compound 0.1 µM) |
| --- | --- | --- | --- | --- | --- | --- | --- | --- | --- | --- | --- | --- | --- | --- | --- | --- | --- | --- | --- |
| 201T | 0.322 | 0.371 | 0.361 | 0.401 | 0.401 | 0.367 | 0.339 | 0.361 | 0.369 | 1.01 | 1.01 | 0.963 | 1.01 | 1.01 | 0.611 | 0.573 | 0.653 | 0.61 | 0.646 |
| A-427 | 0.425 | 0.48 | 0.523 | 0.485 | 0.505 | 0.532 | 0.502 | 0.567 | 0.293 | 1.03 | 0.777 | 0.988 | 0.506 | 1.01 | 0.467 | 0.676 | 0.722 | 0.639 | 0.718 |
| ABC-1 | – | 0.71 | 0.842 | 0.769 | 0.823 | – | 0.662 | 0.269 | 0.283 | 0.67 | 0.445 | 0.504 | – | 0.498 | 0.717 | 0.783 | 0.784 | 0.913 | 0.827 |
| BEN | 0.388 | 0.427 | 0.544 | 0.472 | 0.503 | 0.482 | 0.412 | 0.477 | 0.545 | 0.421 | 0.33 | 0.307 | 0.384 | 0.214 | 0.66 | 0.766 | 0.563 | 0.582 | 0.676 |
| CAL-12T | 0.362 | 0.404 | 0.607 | 0.348 | 0.0629 | 0.45 | 0.582 | 0.489 | 0.433 | 0.456 | 0.373 | 0.638 | 0.357 | 0.363 | 0.632 | 0.663 | 0.759 | 0.495 | 0.689 |
| COR-L23 | 0.236 | 0.269 | 0.34 | 0.244 | 0.244 | 0.279 | 0.272 | 0.217 | 0.152 | 0.653 | 0.613 | 0.773 | 0.439 | 0.668 | – | – | – | – | – |
| COR-L 105 | 0.395 | 0.397 | 0.396 | – | 0.418 | 0.371 | 0.388 | 0.424 | 0.401 | 0.579 | 0.765 | 0.738 | 0.693 | 0.59 | – | – | – | – | – |
| ChaGo-K-1 | – | 0.922 | 0.918 | 0.949 | 0.904 | 0.951 | 0.909 | 0.881 | 0.918 | 0.522 | 0.635 | 0.682 | 0.625 | 0.601 | – | 0.841 | 0.981 | 0.84 | 0.932 |
| EKVX | – | 0.354 | 0.397 | 0.451 | 0.283 | 0.386 | 0.348 | 0.42 | 0.215 | 0.673 | 0.805 | 0.862 | 0.829 | 0.865 | – | 0.621 | 0.744 | 0.67 | 0.841 |
| EMC-BAC-2 | 0.456 | 0.483 | 0.547 | – | 0.544 | 0.49 | 0.514 | 0.536 | 0.384 | 1.11 | 1.15 | 1.2 | – | 1.23 | 0.909 | 1.21 | 1.16 | – | 1.19 |
| EPLC-272H | 0.304 | 0.355 | 0.301 | 0.311 | 0.312 | 0.314 | 0.27 | 0.35 | 0.327 | 0.439 | 0.418 | 0.44 | 0.399 | 0.168 | 0.287 | 0.325 | 0.258 | 0.208 | 0.231 |
| H3255 | 0.318 | 0.358 | 0.329 | 0.305 | 0.309 | 0.324 | 0.305 | 0.351 | 0.319 | 0.788 | 0.857 | 0.966 | 0.971 | 0.875 | 0.905 | 0.894 | 0.911 | 0.911 | 1.03 |
| HARA | 0.233 | 0.23 | 0.261 | 0.248 | 0.259 | 0.235 | 0.262 | 0.328 | 0.211 | – | 0.684 | 0.933 | 0.526 | 0.566 | 0.401 | 0.193 | 0.515 | 0.26 | 0.334 |
| HCC-15 | 0.651 | 0.751 | 0.72 | 0.734 | 0.753 | 0.702 | 0.854 | 0.701 | 0.749 | – | 0.281 | 0.197 | 0.346 | 0.33 | 1.35 | 1.13 | 0.951 | 1.14 | 0.958 |
| HCC-44 | 0.943 | 1.04 | 0.997 | 0.921 | 0.949 | 0.975 | 1.01 | 0.928 | 1 | – | 0.99 | 1.06 | 0.35 | 0.996 | 0.976 | 1.04 | 0.988 | 1.02 | 1.02 |
